# According to PMC7883873, “Discovery of New Catalytic Topoisomerase II Inhibitors for Anticancer Therapeutics” (Frontiers in Oncology, 2021):
# How the values were obtained:
# TOP2A (431–1193) = molecular target: T1, TOP2A (431–1193) (Homo sapiens, UniProt P11388); experiment: Electrophoresis mobility shift assay (EMSA); format: binding; conditions: 200 µM; 30 µM protein, 300 nM 5ZRF oligo
# T1 construct: was incorporated with TOP2A (431–1193); made in house; host or cells: Escherichia coli BL21 co-expressing biotin ligase
# T1 sequence (P11388 431-1193): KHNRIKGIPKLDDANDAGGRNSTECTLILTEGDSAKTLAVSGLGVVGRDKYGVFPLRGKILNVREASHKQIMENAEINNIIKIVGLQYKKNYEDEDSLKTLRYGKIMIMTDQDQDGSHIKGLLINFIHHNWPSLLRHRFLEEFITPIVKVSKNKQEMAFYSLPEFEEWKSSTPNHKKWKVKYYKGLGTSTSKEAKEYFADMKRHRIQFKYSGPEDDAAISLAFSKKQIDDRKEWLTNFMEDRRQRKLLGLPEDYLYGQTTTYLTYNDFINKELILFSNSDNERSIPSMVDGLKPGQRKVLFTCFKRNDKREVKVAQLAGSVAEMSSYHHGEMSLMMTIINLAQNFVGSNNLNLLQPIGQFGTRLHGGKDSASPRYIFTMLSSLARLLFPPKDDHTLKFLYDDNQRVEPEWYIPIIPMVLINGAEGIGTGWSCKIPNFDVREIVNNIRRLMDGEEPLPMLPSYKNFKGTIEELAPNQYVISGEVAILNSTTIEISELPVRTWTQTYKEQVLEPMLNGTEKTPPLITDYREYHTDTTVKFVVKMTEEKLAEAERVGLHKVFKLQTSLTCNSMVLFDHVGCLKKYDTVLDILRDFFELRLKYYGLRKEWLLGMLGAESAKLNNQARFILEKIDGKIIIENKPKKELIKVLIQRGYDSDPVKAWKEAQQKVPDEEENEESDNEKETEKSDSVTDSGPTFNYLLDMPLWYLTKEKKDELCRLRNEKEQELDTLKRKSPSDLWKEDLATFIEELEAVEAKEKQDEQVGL
# Experimental: EMSA followed the standard protocols as we and others described with minor modifications ([54]–[56]). The double-strand DNA oligo, 5ZRF (AGCCGAGCTGCAGCTCGGCT labeled by IRDye700) was purchased from IDT (Coralville, USA). Human TOP2 (431–1193), TOP2A (TopoGEN) or TOP2B (Inspiralis) proteins were incubated with 300 nM of 5ZRF oligo in a standard 20 µl EMSA reaction in a reaction buffer containing 20 mM HEPES-NaOH, pH 7.4, 2 mM DTT, 3 mM MgCl2, 0.05% NP-40, protease inhibitors, and 0.1 µg poly[dI:dC]. After incubation for 30 min at 37C, reactions were loaded onto 4% non-denatured polyacrylamide gel in 0.5× TBE buffer. The DNA oligo bands were visualized by using the Li-Cor Odyssey 9120 Infrared Imaging System.
# [1] = test system: GFP-AR transfected DU145 cells; experiment: AR subcellular localization by microscopy; format: cell-based; conditions: 20 µM, 24 h
# TOP2A [2] = molecular target: T2, TOP2A (Homo sapiens, UniProt P11388); experiment: DNA relaxation assay (supercoiled pHOT-1 plasmid); format: biochemical; design: full-length human TOP2A and TOP2B protein (TopoGEN and Inspiralis respectively); purchased TopoGEN TG1001 (human TOP2 assay kit)
# T2 sequence (P11388 whole entry): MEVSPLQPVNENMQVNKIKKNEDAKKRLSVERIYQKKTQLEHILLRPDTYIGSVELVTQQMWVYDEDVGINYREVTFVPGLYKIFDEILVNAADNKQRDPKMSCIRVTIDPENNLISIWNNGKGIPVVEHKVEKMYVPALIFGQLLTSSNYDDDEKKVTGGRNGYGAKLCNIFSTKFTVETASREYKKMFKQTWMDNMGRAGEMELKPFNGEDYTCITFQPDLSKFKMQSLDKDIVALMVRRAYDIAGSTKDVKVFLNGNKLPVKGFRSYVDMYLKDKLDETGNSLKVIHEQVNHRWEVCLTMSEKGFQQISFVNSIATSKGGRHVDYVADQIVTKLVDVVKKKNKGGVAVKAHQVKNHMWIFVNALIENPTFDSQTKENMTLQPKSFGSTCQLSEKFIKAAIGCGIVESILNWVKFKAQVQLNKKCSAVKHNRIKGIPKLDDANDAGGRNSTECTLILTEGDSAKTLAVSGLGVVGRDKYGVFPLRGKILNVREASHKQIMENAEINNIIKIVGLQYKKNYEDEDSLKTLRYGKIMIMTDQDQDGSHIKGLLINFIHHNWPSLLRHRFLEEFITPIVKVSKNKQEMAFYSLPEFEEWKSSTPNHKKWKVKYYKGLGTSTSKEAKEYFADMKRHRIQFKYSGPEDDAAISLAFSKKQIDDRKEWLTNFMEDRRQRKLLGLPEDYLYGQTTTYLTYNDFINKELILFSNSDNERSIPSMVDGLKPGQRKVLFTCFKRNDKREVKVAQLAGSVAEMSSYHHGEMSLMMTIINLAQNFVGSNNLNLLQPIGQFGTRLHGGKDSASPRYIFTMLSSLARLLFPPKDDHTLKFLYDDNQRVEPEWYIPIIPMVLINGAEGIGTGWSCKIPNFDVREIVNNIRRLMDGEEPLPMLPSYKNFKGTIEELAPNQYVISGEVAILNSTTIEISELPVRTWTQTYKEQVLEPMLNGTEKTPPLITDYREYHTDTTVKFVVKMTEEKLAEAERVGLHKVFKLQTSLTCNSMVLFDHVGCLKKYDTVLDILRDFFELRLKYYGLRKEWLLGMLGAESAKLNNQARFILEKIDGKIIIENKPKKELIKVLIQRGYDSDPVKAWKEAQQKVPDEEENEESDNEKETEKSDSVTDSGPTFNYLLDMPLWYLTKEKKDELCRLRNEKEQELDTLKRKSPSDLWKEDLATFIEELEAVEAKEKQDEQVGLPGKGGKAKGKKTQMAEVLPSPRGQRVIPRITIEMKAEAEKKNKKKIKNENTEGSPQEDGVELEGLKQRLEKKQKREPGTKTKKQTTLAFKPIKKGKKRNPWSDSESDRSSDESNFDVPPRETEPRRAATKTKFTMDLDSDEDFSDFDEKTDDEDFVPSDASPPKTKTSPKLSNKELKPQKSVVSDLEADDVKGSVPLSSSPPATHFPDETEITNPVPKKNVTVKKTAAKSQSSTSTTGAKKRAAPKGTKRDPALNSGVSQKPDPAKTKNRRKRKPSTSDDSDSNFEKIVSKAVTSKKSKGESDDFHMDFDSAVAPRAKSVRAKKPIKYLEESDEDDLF
# Experimental: The human TOP2A and TOP2B were used to perform DNA relaxation assays. […] The reaction was incubated at 37C for 2 h and stopped by adding 2 µl of 10% SDS and 1 µl of 250 mM of EDTA, followed by the addition of 50 µg/ml of proteinase K at 45 C for 1 h. The reaction was then resolved by electrophoresis on a 1% agarose gel at 80 V and stained with 0.5 µg/ml ethidium bromide for 15 min. DNA bands were visualized using a gel imager (Gel Doc™ EZ System) and quantified using the Image Studio™ Lite Quantification Software.
# [3] = test system: AR target genes such as PSA and FKBP5; experiment: Real-time PCR of AR target genes; format: cell-based; conditions: LNCaP and LNCaP95 cells, 0-20 µM, −/+10nM DHT
# [4] = test system: phospho-H2AXγ protein levels in K562 cells; experiment: Immunoblotting of phospho-H2AXγ (DNA damage); format: cell-based; conditions: 4 h
# Experimental: (§1) Cell proliferation rates were measured by using the CellTitre 96 AqueousOne kit (Promega) and bromodeoxyuridine (BrdU) assay kit (Millipore) according to the manufacturer’s protocol as we have described ([51]). Cytotoxicity was evaluated by using the commercial kit (CAT# 8078, ThermoFisher). Culture media was collected and used to measure lactate dehydrogenase (LDH) levels by a colorimetric method following the manufacture’s protocol (ThermoFisher). Cell cycling was assessed by using BrdU incorporation into S-phase DNA by using the APC BrdU flow kit (BD Pharmingen; Franklin Lakes, New Jersey) according to the manufacturer’s protocol. 1 mM of BrdU was added to cells and incubated for 6 h. Cells were incubated with anti-BrdU antibody and stained with 7-AAD before processing the cells for flow cytometry ([52]). Immunoblotting assays followed the standard protocol as we have reported ([51]–[53]).
# TOP2B = TOP2B (Homo sapiens, UniProt Q02880); experiment: DNA cleavage assay; format: biochemical; design: full-length human TOP2A and TOP2B protein (TopoGEN and Inspiralis respectively); purchased Inspiralis HTB205; conditions: co-treatment with 200 µM etoposide; 1, 100, 200 µM
# TOP2B, sequence (Q02880 whole entry): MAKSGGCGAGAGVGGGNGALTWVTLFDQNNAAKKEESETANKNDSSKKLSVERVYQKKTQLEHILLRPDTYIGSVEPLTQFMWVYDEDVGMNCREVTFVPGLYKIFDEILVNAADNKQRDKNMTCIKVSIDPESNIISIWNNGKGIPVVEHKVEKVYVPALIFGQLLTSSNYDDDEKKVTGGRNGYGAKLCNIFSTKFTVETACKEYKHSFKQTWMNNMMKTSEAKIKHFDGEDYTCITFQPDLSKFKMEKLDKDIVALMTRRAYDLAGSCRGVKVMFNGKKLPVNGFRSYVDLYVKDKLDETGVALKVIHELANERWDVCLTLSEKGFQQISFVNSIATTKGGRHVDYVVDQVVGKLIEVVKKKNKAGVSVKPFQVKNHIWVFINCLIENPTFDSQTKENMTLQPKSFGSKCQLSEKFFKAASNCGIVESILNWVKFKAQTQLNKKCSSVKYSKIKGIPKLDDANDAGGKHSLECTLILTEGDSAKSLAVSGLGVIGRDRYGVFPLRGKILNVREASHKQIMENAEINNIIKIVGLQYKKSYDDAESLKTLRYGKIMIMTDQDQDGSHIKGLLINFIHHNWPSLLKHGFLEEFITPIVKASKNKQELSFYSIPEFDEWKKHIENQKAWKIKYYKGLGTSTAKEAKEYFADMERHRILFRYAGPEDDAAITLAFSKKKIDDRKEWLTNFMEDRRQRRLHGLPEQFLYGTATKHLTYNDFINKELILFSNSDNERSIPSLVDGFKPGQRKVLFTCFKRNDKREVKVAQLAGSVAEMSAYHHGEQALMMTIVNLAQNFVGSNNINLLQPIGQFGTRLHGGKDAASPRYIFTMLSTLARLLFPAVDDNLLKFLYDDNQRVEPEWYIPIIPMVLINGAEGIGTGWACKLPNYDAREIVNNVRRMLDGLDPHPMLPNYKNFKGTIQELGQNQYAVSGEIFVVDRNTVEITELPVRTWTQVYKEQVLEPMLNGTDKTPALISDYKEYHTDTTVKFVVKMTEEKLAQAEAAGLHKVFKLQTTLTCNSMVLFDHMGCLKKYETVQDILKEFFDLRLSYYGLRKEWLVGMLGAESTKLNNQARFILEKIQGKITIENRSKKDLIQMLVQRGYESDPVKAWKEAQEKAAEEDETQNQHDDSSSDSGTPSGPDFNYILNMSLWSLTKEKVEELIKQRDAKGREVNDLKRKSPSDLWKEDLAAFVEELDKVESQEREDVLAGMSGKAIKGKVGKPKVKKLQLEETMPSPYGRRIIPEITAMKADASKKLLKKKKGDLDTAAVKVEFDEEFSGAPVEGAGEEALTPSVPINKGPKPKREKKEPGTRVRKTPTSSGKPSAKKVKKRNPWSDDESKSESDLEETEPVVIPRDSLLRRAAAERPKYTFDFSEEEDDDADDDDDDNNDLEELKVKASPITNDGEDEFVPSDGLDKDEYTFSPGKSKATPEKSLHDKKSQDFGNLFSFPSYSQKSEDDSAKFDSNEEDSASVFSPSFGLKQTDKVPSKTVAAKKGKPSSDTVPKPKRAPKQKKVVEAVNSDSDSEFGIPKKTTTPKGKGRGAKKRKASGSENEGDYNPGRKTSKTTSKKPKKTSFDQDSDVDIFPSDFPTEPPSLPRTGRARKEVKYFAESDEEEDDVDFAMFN
# Experimental: The reactions were incubated in 37C for 30 min and stopped by adding 2 µl of 10% SDS and 1 µl of 250 mM of EDTA, followed by the addition of 50 µg/ml of proteinase K at 45C for 30 min. The reaction was then resolved by electrophoresis on a 1% agarose gel containing […] ethidium bromide in TAE buffer at 60 V. DNA bands were visualized using a gel imager (Gel Doc™ EZ System) and quantified by using the Image Studio™ Lite Quantification Software.
# AR = experiment: Probasin- and PSA-luciferase reporter in 293T cells; format: cell-based; conditions: 0-20 µM
# TOP2A [5] = molecular target: T2, TOP2A; experiment: K-DNA decatenation assay; format: biochemical; design: full-length human TOP2A and TOP2B protein (TopoGEN and Inspiralis respectively); purchased TopoGEN TG1001 (human TOP2 assay kit)
# Experimental: The human TOP2 assay kit (#TG1001, TopoGEN, Buena Vista, CO) and TOP2B (HTB205, Inspiralis, UK) were used for K-DNA decatenation assays. […] The reaction was incubated at 37C for 2 h after which 4 µl stop solution (5× buffer is 5% Sarkosyl, 0.125% bromophenol blue, 25% glycerol) was added. The reaction was resolved by electrophoresis on a 0.8% agarose gel at 60 V and stained with 0.5 µg/ml ethidium bromide for 15 min. DNA bands were visualized using a gel imager (Gel Doc™ EZ System) and quantified using the Image Studio™ Lite Quantification Software.
# HeLa cells = experiment: FACS cell cycle assay; format: cell-based; conditions: 20 µM, 48 h
# Experimental: as §1
# U937 leukemia cells = experiment: Cell viability, MTS assay; format: cell-based; conditions: T60 alone, up to 20 µM
# Experimental: as §1
# MR49F = experiment: Cell viability, MTS assay; format: cell-based; conditions: 0-20 µM
# Experimental: as §1
# LNCaP = experiment: Cell viability, MTS assay; format: cell-based; conditions: 0-20 µM
# Experimental: as §1
# NCCIT testicular cells = experiment: Cell viability, MTS assay; format: cell-based; conditions: T60 alone, up to 20 µM
# Experimental: as §1
# DU145 = experiment: Cell viability, MTS assay; format: cell-based; conditions: 0-20 µM; compared to AR-positive PCa cell lines
# Experimental: as §1
# LNCaP95 = experiment: Cell viability, MTS assay; format: cell-based; conditions: 0-20 µM
# Experimental: as §1
# BPH1 = experiment: Cell viability, MTS assay; format: cell-based; conditions: 0-20 µM; compared to AR-positive PCa cell lines
# Experimental: as §1
# [6] = test system: K562, U937, NCI-H82, and NCCIT cancer cells; experiment: Co-treatment with paclitaxel or camptothecin, MTS assay; format: cell-based; conditions: 5-20 µM T60 co-treatment
# Experimental: as §1
compound,measurement,setting,value
O=C(Nc1ccc(Nc2ccccc2)cc1)c1ccc[nH]c1=S [T60],Abolishment of TOP2A (431–1193)-induced upshifted DNA band,TOP2A (431–1193),abolished
same,"Nuclear localization of GFP-AR, DU145",[1],reduced nuclear localization
same,Inhibition of TOP2A activity changing supercoiled into relaxed plasmid DNA,TOP2A [2]; Figure 3B,inhibited
same,IC50,"TOP2A [2]; densitometry of SC bands, read-out: IC50, inhibition of TOP2A plasmid DNA relaxation",~4700 nM
same,"mRNA expression of AR target genes (PSA, FKBP5)",[3],inhibited mRNA expression of AR target genes
same,Effect on etoposide-induced phospho-H2AXγ protein levels,"[4]; 20 µM, co-treated with 10–20 µM etoposide",inhibited etoposide-induced phospho-H2AXγ protein levels
same,Intracellular DNA damage (phospho-H2AXγ protein levels),[4]; 10–20 µM,did not cause intracellular DNA damage
same,"Prevention of etoposide-induced DNA cleavage, TOP2B",TOP2B,prevented
same,"Luciferase activities driven by probasin and PSA promoters, AR",AR,inhibited luciferase activities
same,Inhibition of TOP2A mediated K-DNA decatenation,TOP2A [5]; Figure 3A,inhibited
same,IC50,"TOP2A [5]; densitometry of D-DNA bands, read-out: IC50, inhibition of TOP2A K-DNA decatenation",~300 nM
same,Cell cycle distribution,HeLa cells,"reduced at the G1 phase, but accumulated at S and G2/M phases"
same,"Inhibition of cell growth, U937",U937 leukemia cells,completely inhibited
same,"Cell viability, MR49F",MR49F,strongly suppressed
same,"Cell viability, LNCaP",LNCaP,strongly suppressed
same,"Inhibition of cell growth, NCCIT",NCCIT testicular cells,50%
same,"Cell viability, DU145",DU145,to a much less extent
same,"Cell viability, LNCaP95",LNCaP95,strongly suppressed
same,"Cell viability, BPH1",BPH1,to a much less extent
same,Effect on effectiveness of paclitaxel and camptothecin in suppressing cancer cell growth,[6],enhanced the effectiveness of these drugs
